# Like-named read-outs stand apart in the source and are kept apart here.
# Experiments:
# Drosophila OR71a = target: T1, Drosophila OR71a (Drosophila melanogaster, UniProt Q9VUK5); assay: Calcium ion fluorescence (GCaMP6) assay, OR71a stable HEK293 cell line; assay type: cell-based; conditions: for OR71a response (VUAA1-normalized) at 1 μM / OR71a response (VUAA1-normalized) at 10 μM / OR71a response (VUAA1-normalized) at 100 μM / Average response: OR71a cell line; for Average response: VUAA1-normalized response, mean of biological replicates; for activation at 1 µM / activation at 10 µM / activation at 100 µM: HEK293, read-out: OR71a response (VUAA1-normalized response); for OR71a Average response (VUAA1-normalized): 50 μM VUAA1 = 1
# T1 construct: expressed in transfected cells
# T1 sequence (Q9VUK5 1-378): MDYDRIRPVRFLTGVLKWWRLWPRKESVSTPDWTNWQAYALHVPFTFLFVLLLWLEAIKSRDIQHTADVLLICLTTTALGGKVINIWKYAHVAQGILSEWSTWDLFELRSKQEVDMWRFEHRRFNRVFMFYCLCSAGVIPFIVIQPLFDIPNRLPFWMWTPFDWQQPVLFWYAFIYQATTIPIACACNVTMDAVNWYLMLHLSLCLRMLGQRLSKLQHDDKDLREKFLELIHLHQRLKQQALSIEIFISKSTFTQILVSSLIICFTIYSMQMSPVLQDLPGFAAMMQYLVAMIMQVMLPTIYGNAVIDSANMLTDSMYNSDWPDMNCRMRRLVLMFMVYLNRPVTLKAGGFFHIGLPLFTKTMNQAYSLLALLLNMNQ
# T1 sequence (Q9VNB5 1-486 partner): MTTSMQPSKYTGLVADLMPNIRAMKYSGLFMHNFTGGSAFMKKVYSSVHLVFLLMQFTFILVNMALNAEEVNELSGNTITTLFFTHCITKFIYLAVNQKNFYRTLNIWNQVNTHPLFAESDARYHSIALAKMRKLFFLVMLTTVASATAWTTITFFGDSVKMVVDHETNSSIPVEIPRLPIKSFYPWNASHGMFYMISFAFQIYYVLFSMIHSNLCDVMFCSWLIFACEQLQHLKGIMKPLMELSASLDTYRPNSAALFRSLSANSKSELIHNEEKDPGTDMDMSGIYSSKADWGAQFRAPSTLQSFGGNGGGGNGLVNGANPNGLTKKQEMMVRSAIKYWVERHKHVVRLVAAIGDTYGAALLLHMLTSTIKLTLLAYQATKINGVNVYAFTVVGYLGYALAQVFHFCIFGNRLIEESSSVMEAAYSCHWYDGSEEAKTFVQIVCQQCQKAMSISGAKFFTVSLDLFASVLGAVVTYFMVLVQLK
# Method in brief: (§1)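 Responses are VUAA1-normalized ΔF: each VOC-evoked calcium signal, (FMAX−F0)/F0 over 30 s after injection, divided by the same line's mean 50 µM VUAA1 response. Cells were doxycycline-induced HEK293 with GCaMP6 and the cognate Drosophila OR, in HEPES buffer pH 7.3; ligands tested 0.01–100 μM.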
# Drosophila OR49b = target: T2, Drosophila OR49b (Drosophila melanogaster, UniProt Q9V6H2); assay: cell-based; conditions: for activation at 1 µM / activation at 10 µM / activation at 100 µM: HEK293; for OR49b response (VUAA1-normalized) at 1 μM / OR49b response (VUAA1-normalized) at 10 μM / OR49b response (VUAA1-normalized) at 100 μM / Average response: OR49b cell line; for Average response: mean of biological replicates
# T2 construct: expressed in transfected cells
# T2 sequence (Q9V6H2 1-375): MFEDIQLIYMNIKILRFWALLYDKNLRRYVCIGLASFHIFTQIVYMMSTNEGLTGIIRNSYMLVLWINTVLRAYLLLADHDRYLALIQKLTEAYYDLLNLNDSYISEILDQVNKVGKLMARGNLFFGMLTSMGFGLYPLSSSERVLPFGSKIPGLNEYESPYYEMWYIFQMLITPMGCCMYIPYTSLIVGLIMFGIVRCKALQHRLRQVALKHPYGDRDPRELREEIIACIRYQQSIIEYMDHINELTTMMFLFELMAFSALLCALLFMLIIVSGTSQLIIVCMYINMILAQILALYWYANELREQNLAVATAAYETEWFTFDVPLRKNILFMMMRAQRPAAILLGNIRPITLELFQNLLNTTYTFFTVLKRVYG
# T2 sequence (Q9VNB5 1-486 partner): T1 sequence (Q9VNB5 1-486 partner)
# Method in brief: as §1
# [1] = ligand concentration 1 (unit not given), threshold 0.05, below shown as 0
# [2] = ligand concentration 10 (unit not given), threshold 0.05, below shown as 0
# [3] = ligand concentration 100 (unit not given), threshold 0.05, below shown as 0
# [4] = 1 μM VOC, 50 μM VUAA1 = 1, read-out: OR49b Average response (VUAA1-normalized)
# [5] = 10 μM VOC, 50 μM VUAA1 = 1, read-out: OR49b Average response (VUAA1-normalized)
# [6] = 100 μM VOC, 50 μM VUAA1 = 1, read-out: OR49b Average response (VUAA1-normalized)
# [7] = concentration 1, normalized fluorescence change, values below 0.05 threshold given as 0
# [8] = concentration 10, normalized fluorescence change, values below 0.05 threshold given as 0
# [9] = concentration 100, normalized fluorescence change, values below 0.05 threshold given as 0
# [10] = VOC concentration 1 μM, read-out: OR49b response (VUAA1-normalized response)
# [11] = VOC concentration 10 μM, read-out: OR49b response (VUAA1-normalized response)
# [12] = VOC concentration 100 μM, read-out: OR49b response (VUAA1-normalized response)
Structure (SMILES),OR71a response (VUAA1-normalized) at 1 μM (Drosophila OR71a; VOC concentration 1 μM),OR71a response (VUAA1-normalized) at 10 μM (Drosophila OR71a; VOC concentration 10 μM),OR71a response (VUAA1-normalized) at 100 μM (Drosophila OR71a; VOC concentration 100 μM),Average response (Drosophila OR71a; cc. 1 µM),Average response (Drosophila OR71a; cc. 10 µM),Average response (Drosophila OR71a; cc. 100 µM),DF norm AVERAGE OR71a (Drosophila OR71a; [1]),DF norm AVERAGE OR71a (Drosophila OR71a; [2]),DF norm AVERAGE OR71a (Drosophila OR71a; [3]),activation at 1 µM (Drosophila OR49b; [4]),activation at 10 µM (Drosophila OR49b; [5]),activation at 100 µM (Drosophila OR49b; [6]),OR49b response (VUAA1-normalized) at 1 μM (Drosophila OR49b; VOC concentration 1 μM),OR49b response (VUAA1-normalized) at 10 μM (Drosophila OR49b; VOC concentration 10 μM),Average response (Drosophila OR49b; odorant cc. 1 µM),Average response (Drosophila OR49b; odorant cc. 10 µM),Average response (Drosophila OR49b; odorant cc. 100 µM),DF norm AVERAGE OR49b (Drosophila OR49b; [1]),DF norm AVERAGE OR49b (Drosophila OR49b; [2]),DF norm AVERAGE OR49b (Drosophila OR49b; [3]),also measured
Cc1cccc(C)c1 [m-xylene],0.00,0.00,0.00,0.00,0.00,0.00,0,0,0,0%,3%,27%,0.00,0.00,0.00,0.0251,0.27,0,0,0.2713,OR49b response (VUAA1-normalized) at 100 μM (Drosophila OR49b; VOC concentration 100 μM): 0.27
CCCCCCCCC=O [nonanal],0.00,0.00,0.00,0.00,0.00,0.00,0,0,0,,,,0.00,0.00,0.00,0.00,0.00,0,0,0,OR49b response (VUAA1-normalized) at 100 μM (Drosophila OR49b; VOC concentration 100 μM): 0.00
"C=CC(O)C/C=C\CC (stereo not shown) [(5Z)-octa-1,5-dien-3-ol]",,,,0.00,0.0228,0.00,,,,,,,,,0.00,0.04,0.00,,,,activation at 1 µM (Drosophila OR71a): 0%; activation at 10 µM (Drosophila OR71a): 0%; activation at 100 µM (Drosophila OR71a): 0%; DF norm AVERAGE OR71a (Drosophila OR71a; [7]): 0; DF norm AVERAGE OR71a (Drosophila OR71a; [8]): 0; DF norm AVERAGE OR71a (Drosophila OR71a; [9]): 0; DF norm AVERAGE OR49b (Drosophila OR49b): 0; activation at 1 µM (Drosophila OR49b; [10]): 0%; activation at 10 µM (Drosophila OR49b; [11]): 0%; activation at 100 µM (Drosophila OR49b; [12]): 0%
"Cc1ccc(C)c(C)c1 [1,2,4-trimethylbenzene]",,,,0.00,0.00,0.00,,,,0%,0%,20%,,,0.00,0.00,0.20,,,,activation at 1 µM (Drosophila OR71a): 0%; activation at 10 µM (Drosophila OR71a): 0%; activation at 100 µM (Drosophila OR71a): 0%; DF norm AVERAGE OR71a (Drosophila OR71a; [7]): 0; DF norm AVERAGE OR71a (Drosophila OR71a; [8]): 0; DF norm AVERAGE OR71a (Drosophila OR71a; [9]): 0; activation at 1 µM (Drosophila OR49b; [10]): 0%; activation at 10 µM (Drosophila OR49b; [11]): 0%; activation at 100 µM (Drosophila OR49b; [12]): 20%
COC(=O)c1ccccc1O [methyl salicylate],0.00,0.00,0.12,0.00,0.0108,0.12,0,0,0.1155,3%,0%,12%,0.00,0.00,0.0269,0.00333,0.12,0,0,0.1238,OR71a Average response (VUAA1-normalized) (Drosophila OR71a; 1 μM VOC): 0.00; OR71a Average response (VUAA1-normalized) (Drosophila OR71a; 10 μM VOC): 0.01; OR71a Average response (VUAA1-normalized) (Drosophila OR71a; 100 μM VOC): 0.12; OR49b response (VUAA1-normalized) at 100 μM (Drosophila OR49b; VOC concentration 100 μM): 0.12
CC(=O)OCCC(C)C [isopentyl acetate],,,,0.0333,0.037,0.0218,0,0,0,0%,0%,15%,,,0.00,0.00,0.15,0,0,0.1516,activation at 1 µM (Drosophila OR71a): 0%; activation at 10 µM (Drosophila OR71a): 0%; activation at 100 µM (Drosophila OR71a): 0%; activation at 1 µM (Drosophila OR49b; [10]): 0%; activation at 10 µM (Drosophila OR49b; [11]): 0%; activation at 100 µM (Drosophila OR49b; [12]): 15%
C=C(C)[C@H]1CC=C(C)CC1 [limonene],,,,0.00,0.00,0.00,0,0,0,,,,,,0.00,0.00,0.028,0,0,0,OR71a response (VUAA1-normalized response) (Drosophila OR71a; VOC concentration 1 μM): 0.00; OR71a response (VUAA1-normalized response) (Drosophila OR71a; VOC concentration 10 μM): 0.00; OR71a response (VUAA1-normalized response) (Drosophila OR71a; VOC concentration 100 μM): 0.00; OR49b response (VUAA1-normalized response) (Drosophila OR49b; VOC concentration 1 μM): 0.00; OR49b response (VUAA1-normalized response) (Drosophila OR49b; VOC concentration 10 μM): 0.00; OR49b response (VUAA1-normalized response) (Drosophila OR49b; VOC concentration 100 μM): 0.00
Cc1ccc(O)cc1 [4-methylphenol],,,,0.00,0.00,0.00,,,,3%,11%,44%,,,0.0329,0.11,0.44,,,,activation at 1 µM (Drosophila OR71a): 0%; activation at 10 µM (Drosophila OR71a): 0%; activation at 100 µM (Drosophila OR71a): 0%; DF norm AVERAGE OR71a (Drosophila OR71a; [7]): 0; DF norm AVERAGE OR71a (Drosophila OR71a; [8]): 0; DF norm AVERAGE OR71a (Drosophila OR71a; [9]): 0; activation at 1 µM (Drosophila OR49b; [10]): 0%; activation at 10 µM (Drosophila OR49b; [11]): 11%; activation at 100 µM (Drosophila OR49b; [12]): 44%
COC(=O)c1ccccc1 [methyl benzoate],0.00,0.00,0.00,0.00,0.00,0.0121,0,0,0,,,,0.13,0.00,0.13,0.00,0.05,0.1337,0,0,OR49b response (VUAA1-normalized) at 100 μM (Drosophila OR49b; VOC concentration 100 μM): 0.00

# — article PMC10709440, “High-throughput ligand profile characterization in novel cell lines expressing seven heterologous insect olfactory receptors for the detection of volatile plant biomarkers” (Scientific Reports, 2023)
